# System: RA patients
# Assay: CRP analysis (immunoturbidimetric assay), Study 1
# Type: in vivo, human
# Description: Double-blind, placebo-controlled add on study in subjects with moderately to severely active RA who have an inadequate response to methotrexate (MTX) (oral or parenteral).
# Compound 1 (dosed as a [Compound 1:HCl:3H2O]) is dosed for twelve weeks once daily (q.d.) (50 mg, 100 mg or 200 mg) or twice daily (b.i.d.) (25 mg, 50 mg or 100 mg); or placebo.
# At Week 12, the subjects on placebo who have not achieved 20% improvement in swollen joint count (SJC66) and tender joint count (TJC68) are re-randomized automatically to receive Compound 1 (dosed as a [Compound 1:HCl:3H2O]) either at 100 mg q.d. or 50 mg b.i.d. doses in a blinded fashion; subjects on 50 mg q.d. who have not achieved 20% improvement in SJC66 and TJC68 will be assigned to 100 mg q.d. and subjects on 25 mg b.i.d. that have not achieved a 20% improvement in SJC66 and TJC68 will be assigned to 50 mg b.i.d. Subjects who switch treatment at week 12 are handled as if they discontinued at week 12 for the purpose of statistical analysis, whereas subjects in the other groups will maintain their randomized treatment until Week 24.
# The determination of CRP is made using Immunoturbidimetric assay for the in vitro quantitative determination of CRP in human serum and plasma on Roche/Hitachi cobas c systems, wherein human CRP agglutinates with latex particles coated with monoclonal anti-CRP antibodies. The aggregates are determined turbidimetrically (Eda et al., 1998; Price et al., 1987).
# Human serum and plasma samples [CRP] determination was done on a Roche/Hitachi Cobas c 301 c 501/502 system which automatically calculate the analyte concentration of each sample. Samples containing precipitates are centrifuged before performing the assay.
# The Hommel-corrected p-value for the pairwise comparisons of each group with placebo is shown.
# The number of subjects (N) provided in each groups corresponds to the number of patients starting the study in each group, and the ACR data reported below corresponds to the responding patients continuing for the entire 24 weeks on their initial treatment course.
structure (smiles),measurement,setting,value
"O=C(Nc1nc2cccc(-c3ccc(CN4CCS(=O)(=O)CC4)cc3)n2n1)C1CC1 [Compound 1, cyclopropanecarboxylic acid {5-[4-(1,1-dioxo-thiomorpholin-4-ylmethyl)-phenyl]-[1,2,4]triazolo[1,5-a]pyridin-2yl}-amide]",CRP mean CFB (LOCF) - 24 weeks results,"50 mg q.d., week 1",-7.95 mg/L
same,CRP mean CFB (LOCF) - 24 weeks results,"50 mg q.d., week 2",-8.23 mg/L
same,CRP mean CFB (LOCF) - 24 weeks results,"50 mg q.d., week 4",-10.18 mg/L
same,CRP mean CFB (LOCF) - CRP variation,"50 mg q.d., week 8",-12.02 mg/L
same,CRP mean CFB (LOCF) - 24 weeks results,"50 mg q.d., week 12",-13.15 mg/L
same,CRP mean CFB (LOCF) - 24 weeks results,"100 mg q.d., week 1",-11.02 mg/L
same,CRP mean CFB (LOCF) - 24 weeks results,"100 mg q.d., week 2",-12.94 mg/L
same,CRP mean CFB (LOCF) - 24 weeks results,"100 mg q.d., week 4",-13.18 mg/L
same,CRP mean CFB (LOCF) - 24 weeks results,"100 mg q.d., week 8",-12.48 mg/L
same,CRP mean CFB (LOCF) - 24 weeks results,"100 mg q.d., week 12",-13.57 mg/L
same,CRP mean CFB (LOCF) - 24 weeks results,"200 mg q.d., week 1",-17.06 mg/L
same,CRP mean CFB (LOCF) - 24 weeks results,"200 mg q.d., week 2",-17.51 mg/L
same,CRP mean CFB (LOCF) - 24 weeks results,"200 mg q.d., week 4",-17.94 mg/L
same,CRP mean CFB (LOCF) - 24 weeks results,"200 mg q.d., week 8",-17.22 mg/L
same,CRP mean CFB (LOCF) - 24 weeks results,"200 mg q.d., week 12",-17.24 mg/L
same,CRP mean CFB (LOCF) - 24 weeks results,"2 × 25 mg b.i.d., Week 1",-8.47 mg/L
same,CRP mean CFB (LOCF) - 24 weeks results,"2 × 25 mg b.i.d., Week 2",-10.06 mg/L
same,CRP mean CFB (LOCF) - 24 weeks results,"2 × 25 mg b.i.d., Week 4",-7.72 mg/L
same,CRP mean CFB (LOCF) - 24 weeks results,"2 × 25 mg b.i.d., Week 8",-10.94 mg/L
same,CRP mean CFB (LOCF) - 24 weeks results,"2 × 25 mg b.i.d., Week 12",-10.26 mg/L
same,CRP mean CFB (LOCF) - 24 weeks results,"2 × 25 mg b.i.d., Week 20",-12.20 mg/L
same,CRP mean CFB (LOCF) - 24 weeks results,"2 × 50 mg b.i.d., Week 1",-10.08 mg/L
same,CRP mean CFB (LOCF) - 24 weeks results,"2 × 50 mg b.i.d., Week 2",-11.03 mg/L
same,CRP mean CFB (LOCF) - 24 weeks results,"2 × 50 mg b.i.d., Week 4",-13.28 mg/L
same,CRP mean CFB (LOCF) - 24 weeks results,"2 × 50 mg b.i.d., Week 8",-13.25 mg/L
same,CRP mean CFB (LOCF) - 24 weeks results,"2 × 50 mg b.i.d., Week 12",-12.97 mg/L
same,CRP mean CFB (LOCF) - 24 weeks results,"2 × 100 mg b.i.d., Week 1",-17.39 mg/L
same,CRP mean CFB (LOCF) - 24 weeks results,"2 × 100 mg b.i.d., Week 2",-19.69 mg/L
same,CRP mean CFB (LOCF) - 24 weeks results,"2 × 100 mg b.i.d., Week 4",-20.64 mg/L
same,CRP mean CFB (LOCF) - 24 weeks results,"2 × 100 mg b.i.d., Week 8",-21.32 mg/L
same,CRP mean CFB (LOCF) - 24 weeks results,"2 × 100 mg b.i.d., Week 12",-20.54 mg/L
same,CRP mean CFB (LOCF) - 24 weeks results,"2 × 100 mg b.i.d., Week 20",-20.80 mg/L
